# Publication PMC11855827, “High-Throughput Screening of Five Compound Libraries for Anthelmintic Activity and Toxicity Leads to the Discovery of Two Flavonoid Compounds” (International Journal of Molecular Sciences, 2025)
# Values joined by “and” are separate entries in the source; they are usually repeats but may differ in a detail not shown here. Equal values may be shown once.
# System: C. elegans
# Settings: Table S2, C. elegans SS assay, 110 μM, averages of 4 data points
Molecule,Percentage of motility inhibition 0 h,Percentage of motility inhibition 24 h [%]
COc1ccc(-c2cc(=O)c3c(O)c(OC)c(OC)cc3o2)cc1OC [5‐Desmethylsinensetin],2%,11
C[C@H](CCC(=O)O)[C@H]1CC(=O)[C@@]2(C)C3=C(C(=O)C[C@]12C)[C@@]1(C)CCC(=O)C(C)(C)[C@@H]1C[C@@H]3O [Lucideric acid A],0%,20
COC(=O)C1=CO[C@@H](C)[C@H]2CN3CCc4c([nH]c5ccccc45)[C@@H]3C[C@H]12 [Ajmalicine],0%,1
COc1c(O[C@@H]2O[C@H](CO[C@@H]3OC[C@@H](O)[C@H](O)[C@H]3O)[C@@H](O)[C@H](O)[C@H]2O)cc2occ(-c3ccc(O)cc3)c(=O)c2c1O [Tectorigenin 7‐O‐Xylosyl Glucoside],0%,1
Nc1nc(=O)c2c([nH]1)NCC(CNc1ccc(C(=O)N[C@@H](CCC(=O)O)C(=O)O)cc1)N2C=O (mixture of isomers) [Folinic acid],11%,20
O=c1c(O[C@@H]2O[C@H](CO)[C@@H](O)[C@H](O)[C@H]2O[C@@H]2O[C@H](CO)[C@@H](O)[C@H](O)[C@H]2O)c(-c2ccc(O)c(O)c2)oc2cc(O)cc(O)c12 [Baimaside],13%,0
(‐)‐Sparteine,0%,4
O.O=C(O)c1cc(O)c(O)c(O)c1 [Gallic acid (hydrate)],6%,7
Cc1onc(-c2ccccc2Cl)c1C(=O)N[C@@H]1C(=O)N2[C@@H]1SC(C)(C)[C@@H]2C(=O)[O-].O.[Na+] [Cloxacillin (sodium monohydrate)],14%,4
Bacopaside II,7%,9
C[C@@H]1O[C@@H](O[C@H]2[C@H](O[C@H]3CC[C@@]4(C)[C@@H](CC[C@]5(C)[C@@H]4CC=C4[C@@H]6CC(C)(C)CC[C@]6(C(=O)O[C@@H]6O[C@H](CO[C@@H]7O[C@H](CO)[C@@H](O[C@@H]8O[C@@H](C)[C@H](O)[C@@H](O)[C@H]8O)[C@H](O)[C@H]7O)[C@@H](O)[C@H](O)[C@H]6O)CC[C@]45C)[C@]3(C)CO)OC[C@H](O)[C@@H]2O)[C@H](O)[C@H](O)[C@H]1O [Hederacoside C],18%,0
C[S+]([O-])CCCC/C(=N\OS(=O)(=O)O)S[C@@H]1O[C@H](CO)[C@@H](O)[C@H](O)[C@H]1O (stereo partly drawn) [Glucoraphanin],12%,0
C[C@H]1CC[C@H]2[C@H](C)[C@H]3CC[C@@H]4[C@@H](C[C@H]5[C@H]4CC(=O)[C@H]4C[C@@H](O)CC[C@@]45C)[C@@H]3CN2C1 [Ebeiedinone],0%,4
C[C@@H]1C[C@@H]([C@@H](O)C(C)(C)O)O[C@H]2C[C@@]3(C)C(=C12)C[C@H](O)[C@H]1[C@@]2(C)CCC(=O)C(C)(C)[C@@H]2CC[C@@]13C [Alisol F],0%,11
"O=c1cc(-c2ccc(O)cc2)oc2cc(O)ccc12 [7,4'‐Dihydroxyflavone]",5%,0
COC(=O)C1=CO[C@@H](C)[C@@H]2CN3CC[C@@]4(C(=O)Nc5ccccc54)[C@@H]3C[C@H]12 [Isopteropodine],9%,0
Cl.NCC(O)c1ccc(O)c(O)c1 (stereo not drawn) [Norepinephrine (hydrochloride)],23% and 12%,–
